C=C1CCC[C@]2(C)C[C@]3(O)OC(=O)C(C)=C3C[C@@H]12
solubility (mole fraction)
Settings	283.2 K	288.2 K	293.2 K	298.2 K	303.2 K	308.2 K	313.2 K	318.2 K	323.2 K
in diethyl ether	0.00277	0.00375	0.00562	0.00738	0.00939	–	–	–	–
in ethanol	0.00443	0.00547	0.00673	0.00809	0.00966	0.0113	0.0131	0.0151	0.0171
in ethyl acetate	0.0224	0.0228	0.0236	0.0242	0.0252	0.0261	0.0271	0.0282	0.0293
in n-hexane	2.44e-05	4.12e-05	6.39e-05	8.32e-05	0.000113	0.000153	0.000202	0.000272	0.000336
